Assay results published in ChEMBL document CHEMBL4480438, “Inhibitory Properties of ATP-Competitive Coumestrol and Boldine Are Correlated to Different Modulations of CK2 Flexibility” (J Nat Prod, 2019).

Target: Casein kinase 2 (Homo sapiens, UniProt P67870+P68400+P19784+Q8NEV1)
Assay: Inhibition of CK2 (unknown origin)
Assay type: protein assay

SMILES: COc1cc2c(cc1O)C[C@H]1c3c(cc(O)c(OC)c3-2)CCN1C [BOLDINE]
- IC50: 700 nM
